“Also recorded” adds a separate entry of the source. Where two headings read alike, the source gives them in different places.
How the values were obtained:
Hela cells = test: Cytotoxicity assay (MTT), HeLa; type: cell-based; details: 1 to 100 μM, 24 h
Protocol: (§1) Cell viability results are reported relative to cells treated with vehicle only (100% cell viability).
(§2) 5×10^3 cells were seeded on 80 μl growth media (except 2.5×10^4 Jurkat cells) in each well in 96-well plates and incubate O/N at 37° C. 20 μl of fresh growth media containing each compound were added into each well to make the final concentration ranging from 1-100 μM. DMSO was used for normalization. Cell titer was tested every 24 h using CellTiter 96 non-radioactive cell proliferation assay kit (Promega, Madison, Wis.) at 560 nm absorbance.

Hep3B cells = test: Cytotoxicity assay (MTT), Hep3B; type: cell-based, human; details: 1 to 100 μM, 24 h
Protocol: as §1, §2

TTR = target: T1, TTR (Homo sapiens, UniProt P02766); test: Isothermal titration calorimetry (ITC); type: binding; details: for Kd: TTR 2 μM titrated with 25 μM compound, PBS pH 7.4, 25° C., two-site negative cooperativity model; for ΔG1 / ΔH1 / ΔG2 / ΔH2: ITC; for ΔG1 / ΔH1: first binding site; for ΔG2 / ΔH2: second binding site
T1 construct: purchased Sigma; host or cells: human plasma

WT-TTR in human serum [1] = target: T2, WT-TTR in human serum (Homo sapiens, UniProt P02766); test: Serum WT-TTR tetramer stability against acid denaturation; details: 10 μM compound, human serum (TTR ~5 μM), pH 4.0, 72 hours
Protocol: Serum samples were incubated in acetate buffer (pH 4.0), with DMSO or 10 μM of test compound, for the desired time period (0 and 72 hours) before cross-linking, SDS-PAGE, and immunoblotting. The density of all TTR bands (TTR tetramer; arrowhead and TTR bound to RBP; solid arrow) was quantified using an Odyssey infrared imaging system (LI-COR Bioscience, Lincoln, Nebr.) and reported as % TTR tetramer=100×[(tetramer & tetramer+RBP density, 72 hrs)/(tetramer & tetramer+RBP density of DMSO, 0 hrs)].
All compounds were 10 mM stock solutions in DMSO and diluted accordingly with DMSO for different assays. 0.5 μl of each compound was added to 24.5 μl of human serum (from human male AB plasma, Sigma) to make the final concentration of 10 μM. The samples were incubated at 37° C. for 2 h, and then 10 μl of the samples were diluted 1:10 with acidification buffer (pH 4.0, 100 mM sodium acetate, 100 mM KCl, 1 mM EDTA, 1 mM DTT). […] All the samples were denatured with adding 100 μl SDS gel loading buffer and boiled for 5 min. […] The normalization was done by dividing each value of the TTR tetramer band intensity by the average of all the values at time 0.
The compounds were tested for their ability to stabilize WT-TTR in human serum (FIG. 5). […] Test compounds (10 μM) were pre-incubated with human serum (TTR ˜5 μM) and the pH was lowered to pH 4.0 to induce aggregation. Aliquots, taken at 0 and 72 hours, were treated with glutaraldehyde to cross-link TTR tetramers that remained intact in the serum sample. SDS-PAGE followed by immunoblot analysis was used to measure the amount of intact TTR tetramer after 72 hours of acid treatment in the presence and absence of test compounds.

WT-TTR in human serum [2] = target: T2, WT-TTR in human serum; test: Serum TTR selectivity assay (covalent probe 6 competition); type: binding; set-up: tissue Sigma-Aldrich; host or cells: human serum (A4: from human male AB plasma); details: 10 μM compound, 3.6 μM probe, human serum (TTR ~5 μM), after 6 hours; lower = more selective
Protocol: 98 μL of human serum (Sigma-Aldrich) was mixed with 1 μL of test compounds (1.0 mM stock solution in DMSO, final concentration: 10 μM) and 1 μL of covalent probe 6 (0.36 mM stock solution in DMSO: final concentration: 3.6 μM). The fluorescence changes (λex=328 nm and λem=384 nm) were monitored every 10 min using a microplate spectrophotometer reader (Molecular Devices SpectraMax M5) for 6 h at 25° C.
Covalent probe 6 binds selectively to TTR in serum and covalently modifies K15, creating a fluorescent conjugate. Ligands that bind with high selectivity to TTR in serum decrease covalent probe 6 binding to TTR and therefore lower the fluorescence. All test compounds (10 μM) were incubated with human serum (WT-TTR concentration ˜5 μM) in the presence of covalent probe 6 (3.6 μM) (FIG. 4).

[3] = system: Hep3B, Jurkat, MCF7 and HeLa cell lines; test: Cytotoxicity assay (MTT), panel of four cell lines; type: cell-based; details: 1 to 100 μM, 24 h
Protocol: as §1, §2

[4] = target: T3, V122I-TTR in serum from FAC patients (Homo sapiens, UniProt P02766, V142I); test: Serum V122I-TTR tetramer stability against acid denaturation; type: biochemical; details: 10 μM compound, pH 4.0, 72 hours
T3 construct: stabilization of V122I-TTR in serum from two FAC patients; from tissue; host or cells: serum of two FAC patients carrying V122I

MCF7 cells = test: Cytotoxicity assay (MTT), MCF7; type: cell-based; details: MCF7, 1 to 100 μM, 24 h
Protocol: as §1, §2

[5] = human subjects, 20 mg daily dose; read-out: mean maximum concentration (Cmax) in serum; cited from earlier work

Row | Kd (TTR; read-out: Kd1) | Kd (TTR; read-out: Kd2) | TTR tetramer stabilization (% TTR tetramer) (WT-TTR in human serum [1]) | covalent probe 6 binding to TTR relative to probe alone (WT-TTR in human serum [2]) | V122I-TTR tetramer stabilized [4] | ΔG1 (TTR) | ΔH1 (TTR) | ΔG2 (TTR) | ΔH2 (TTR) | Compound | concentration at which cytotoxicity is shown (Hela cells) | concentration at which cytotoxicity is shown (Hep3B cells) | concentration at which toxicity to certain cell lines is displayed [3] | cytotoxicity towards the cell lines tested [3] | concentration at which cytotoxic effects were observed (MCF7 cells) | Cmax [5]
1 | 0.058 µM | 0.5 µM | 61.7%+/−2.1 | 59.3±8.7% |  |  |  |  |  | Cc1n[nH]c(C)c1CCCOc1ccccc1F [Compound A] | > 25 µM | > 25 µM | > 25 µM |  |  | 
2 |  |  | 108+/−6% | 3.1±2.9% | ~100% | ~−11.4 | -56.9 kJ/mol | ~−8.8 | -31.4 kJ/mol | Cc1n[nH]c(C)c1CCCOc1cc(C(=O)O)ccc1F [Compound VIIc, 3-(3-(3,5-Dimethyl-1H-pyrazol-4-yl)propoxy)-4-fluorobenzoic acid] |  |  |  | not toxic; also recorded: no cytotoxic effects |  | 
3 |  |  | about 58%+/−3 |  |  | ~−11.4 | -20.9 kJ/mol | ~−8.8 | -16.3 kJ/mol | O=C(O)c1ccc2nc(-c3cc(Cl)cc(Cl)c3)oc2c1 [tafamidis] |  |  |  |  | > 50 µM | ~7.4 µM

Reference: patent US10842777B2, “Compounds and compositions that bind and stabilize transthyretin and their use for inhibiting transthyretin amyloidosis and protein-protein interactions” (The Board of Trustees of the Leland Stanford Junior …, priority 2012, dated 2020)
